{"source": "paper PMC10564794", "about": "“Safety and tolerability of oral vorolanib for neovascular (wet) age-related macular degeneration: a phase I, open-label study” (Eye, 2023)", "key": {"[1]": {"test_system": "human umbilical vein endothelial cells stimulated with rHuVEGF165", "parameters": "method as in PMID 33610563", "conditions": "HUVEC stimulated with rHuVEGF165; cited from earlier work"}, "[2]": {"test_system": "study eyes of participants with nAMD", "test": "Efficacy: change from baseline in BCVA (ETDRS), CST and CNV characteristics", "type": "in vivo, human", "protocol": "The efficacy outcomes included changes from baseline in mean BCVA based on ETDRS, central subfield thickness (CST), and CNV characteristics. CST was confirmed by a […] (Heidelberg Engineering, Heidelberg, Germany) at screening, Day 14, and Day 30; then monthly for the next 6 months; and then every 3 months until the end of treatment. FA was performed by a Heidelberg retina tomograph (Heidelberg Engineering) with an Ophthavision Imaging System (MRP Group, Boston, MA) capture station at the screening, Day 90, Day 180, Day 270 and Day 360 visits.\nBecause this was a phase I study, no power calculation was performed to determine sample size. All participants who had received at least one dose of vorolanib were included in the safety assessment. All participants who completed the course of vorolanib treatment were included for efficacy assessment. All participants who had received at least one dose of vorolanib and who had PK data were included in the PK analysis. Descriptive statistics were used for analyses. For quantitative data, the means ± standard deviations were selected. All statistical analyses were performed with SAS software, v. 9.4 (SAS Institute Inc., Cary, NC, USA)."}, "[3]": {"test_system": "oxygen-induced retinopathy mice", "parameters": "method as in PMID 33610563", "conditions": "cited from earlier work"}, "[4]": {"test_system": "Caucasian participants with nAMD", "conditions": "cited from earlier work"}, "participants with nAMD": {"test_system": "participants with nAMD", "test": "Phase I safety and tolerability of oral vorolanib (adverse events, DLT, MTD)", "type": "in vivo", "conditions": "for Dose-limiting toxicities (DLT): dose escalation", "protocol": "This phase I, open-label study consisting of dose escalation and dose expansion was conducted at 6 Chinese sites (NCT02452385 and CTR20150152). This study was approved by the local institutional review board at each participating site and conducted in accordance with the Declaration of Helsinki. All participants provided written informed consent.\nThe schedule of procedures is shown in Table S1 in the Supplementary Material. In the dose escalation, participants in each group were assigned to receive ascending doses of vorolanib (25, 50, 75 and 100 mg daily). The dose escalated to the next level in the absence of more than two of eight patients with dose-limiting toxicity (DLT), which was defined as a drug-related safety event during the first cycle (30 days) of treatment that was severe enough to require removal of the participant from the study. The maximum tolerated dose (MTD) was defined as the maximum dose at which no more than two of eight DLTs occurred in the group.\nAEs were determined by the investigator per the Common Terminology Criteria for Adverse Events version 4.0."}}, "data": [{"smiles": "Cc1[nH]c(/C=C2\\C(=O)Nc3ccc(F)cc32)c(C)c1C(=O)N[C@H]1CCN(C(=O)N(C)C)C1", "note": "[vorolanib, Vorolanib]", "values": [{"measurement": "Antiangiogenic effects", "setting": "[1]", "value": "highly antiangiogenic effects"}, {"measurement": "Mean Change from Baseline to day 180 CST", "setting": "[2]; 25 mg cohort, N 16", "value": "−11.7", "unit": "μm"}, {"measurement": "Mean Change from Baseline to day 360 BCVA", "setting": "[2]; 25 mg cohort, N 16", "value": "+4.3 letters"}, {"measurement": "Mean Change from Baseline to day 360 CST", "setting": "[2]; 25 mg cohort, N 16", "value": "−27.0", "unit": "μm"}, {"measurement": "Mean Change from Baseline to day 180 CST", "setting": "[2]; 50 mg cohort, N 16", "value": "−85.0", "unit": "μm"}, {"measurement": "Mean Change from Baseline to day 360 BCVA", "setting": "[2]; 50 mg cohort, N 16", "value": "+8.5 letters"}, {"measurement": "Mean Change from Baseline to day 360 CST", "setting": "[2]; 50 mg cohort, N 16", "value": "−54.8", "unit": "μm"}, {"measurement": "Mean Change from Baseline to day 180 CST", "setting": "[2]; 75 mg cohort, N 8", "value": "−33.0", "unit": "μm"}, {"measurement": "Mean Change from Baseline to day 360 BCVA", "setting": "[2]; 75 mg cohort, N 8", "value": "+12.0 letters"}, {"measurement": "Mean Change from Baseline to day 360 CST", "setting": "[2]; 75 mg cohort, N 8", "value": "−45.5", "unit": "μm"}, {"measurement": "Mean decrease in CNV area", "setting": "[2]; 41 participants, baseline to Day 360, range −3.8–0.2", "value": "−0.9", "unit": "mm^2"}, {"measurement": "Mean decrease in lesion area", "setting": "[2]; 41 participants, baseline to Day 360, range −4.8–0.5", "value": "−1.3", "unit": "mm^2"}, {"measurement": "Mean decrease in CNV leakage", "setting": "[2]; 41 participants, baseline to Day 360, range −10.8–0.2", "value": "−4.0", "unit": "mm^2"}, {"measurement": "Mean BCVA improvement at follow-up after treatment", "setting": "[2]; 75.6% of participants who continued follow-up one month after vorolanib treatment", "value": 2.6, "unit": "letters"}, {"measurement": "Participants evaluable at Day 360 who maintained or improved vision", "setting": "[2]; Day 360", "value": "12 (29.3%) participants (%)"}, {"measurement": "Reduced CNV area", "setting": "[2]; accompanying decline in CNV leakage", "value": 37.4, "unit": "%"}, {"measurement": "Mean Change from Baseline to day 180 CST", "setting": "[2]; all cohorts, N 41", "value": "−48.6", "unit": "μm"}, {"measurement": "Mean Change from Baseline to day 360 CST", "setting": "[2]; all cohorts, N 41, range −258–40", "value": "−44.0", "unit": "μm"}, {"measurement": "Mean reduction in CST", "setting": "[2]; by Day 180, all participants", "value": 48.6, "unit": "μm"}, {"measurement": "Retinal neovascularization and avascular area in the retina", "setting": "[3]", "value": "markedly inhibited"}, {"measurement": "Participants with ocular AEs", "setting": "[4]; 4 of 35 participants, none related to vorolanib", "value": 11.4, "unit": "%"}, {"measurement": "Participants with serious AEs", "setting": "[4]; 4 serious AEs in 3 participants, none attributed to vorolanib", "value": 8.6, "unit": "%"}, {"measurement": "Mean BCVA change", "setting": "[4]; at 24 weeks", "value": "+3.8 letters"}, {"measurement": "Deaths or DLTs", "setting": "[4]", "value": "no deaths or DLTs"}, {"measurement": "Systemic AEs", "setting": "[4]; number of events", "value": 94}, {"measurement": "Vorolanib-related systemic AEs", "setting": "[4]; of 94 systemic AEs", "value": 32}, {"measurement": "Mean reduction in CST", "setting": "[4]; participants that completed 24 weeks", "value": 50, "unit": "μm"}, {"measurement": "TRAE: Elevated ALT", "setting": "participants with nAMD; 25 mg, N = 16", "value": "3 (18.8%) number of participants (%)"}, {"measurement": "TRAE: Elevated AST", "setting": "participants with nAMD; 25 mg, N = 16", "value": "3 (18.8%) number of participants (%)"}, {"measurement": "TRAE: Elevated blood pressure", "setting": "participants with nAMD; 25 mg, N = 16", "value": "4 (25.0%) number of participants (%)"}, {"measurement": "TRAE: Hair colour changes", "setting": "participants with nAMD; 25 mg, N = 16", "value": "0 number of participants (%)"}, {"measurement": "TRAE: Leucopenia", "setting": "participants with nAMD; 25 mg, N = 16", "value": "1 (6.3%) number of participants (%)"}, {"measurement": "TRAE: Neutropenia", "setting": "participants with nAMD; 25 mg, N = 16", "value": "1 (6.3%) number of participants (%)"}, {"measurement": "TRAE: QT interval prolongation", "setting": "participants with nAMD; 25 mg, N = 16", "value": "2 (12.5%) number of participants (%)"}, {"measurement": "TRAE: Thrombocytopenia", "setting": "participants with nAMD; 25 mg, N = 16", "value": "2 (12.5%) number of participants (%)"}, {"measurement": "TRAE: Elevated ALT", "setting": "participants with nAMD; 50 mg, N = 16", "value": "9 (56.3%) number of participants (%)"}, {"measurement": "TRAE: Elevated AST", "setting": "participants with nAMD; 50 mg, N = 16", "value": "8 (50.0%) number of participants (%)"}, {"measurement": "TRAE: Elevated blood pressure", "setting": "participants with nAMD; 50 mg, N = 16", "value": "6 (37.5%) number of participants (%)"}, {"measurement": "TRAE: Hair colour changes", "setting": "participants with nAMD; 50 mg, N = 16", "value": "4 (25.0%) number of participants (%)"}, {"measurement": "TRAE: Leucopenia", "setting": "participants with nAMD; 50 mg, N = 16", "value": "3 (18.8%) number of participants (%)"}, {"measurement": "TRAE: Neutropenia", "setting": "participants with nAMD; 50 mg, N = 16", "value": "3 (18.8%) number of participants (%)"}, {"measurement": "TRAE: QT interval prolongation", "setting": "participants with nAMD; 50 mg, N = 16", "value": "4 (25.0%) number of participants (%)"}, {"measurement": "TRAE: Thrombocytopenia", "setting": "participants with nAMD; 50 mg, N = 16", "value": "1 (6.3%) number of participants (%)"}, {"measurement": "Dose-limiting toxicities (DLT)", "setting": "participants with nAMD; 75 mg cohort", "value": "one"}, {"measurement": "TRAE: Elevated ALT", "setting": "participants with nAMD; 75 mg, N = 8", "value": "5 (62.5%) number of participants (%)"}, {"measurement": "TRAE: Elevated AST", "setting": "participants with nAMD; 75 mg, N = 8", "value": "4 (50.0%) number of participants (%)"}, {"measurement": "TRAE: Elevated blood pressure", "setting": "participants with nAMD; 75 mg, N = 8", "value": "3 (37.5%) number of participants (%)"}, {"measurement": "TRAE: Hair colour changes", "setting": "participants with nAMD; 75 mg, N = 8", "value": "2 (25.0%) number of participants (%)"}, {"measurement": "TRAE: Leucopenia", "setting": "participants with nAMD; 75 mg, N = 8", "value": "3 (37.5%) number of participants (%)"}, {"measurement": "TRAE: Neutropenia", "setting": "participants with nAMD; 75 mg, N = 8", "value": "2 (25.0%) number of participants (%)"}, {"measurement": "TRAE: QT interval prolongation", "setting": "participants with nAMD; 75 mg, N = 8", "value": "1 (12.5%) number of participants (%)"}, {"measurement": "TRAE: Thrombocytopenia", "setting": "participants with nAMD; 75 mg, N = 8", "value": "3 (37.5%) number of participants (%)"}, {"measurement": "Dose-limiting toxicities (DLT)", "setting": "participants with nAMD; 100 mg cohort", "value": "one"}, {"measurement": "TRAE: Elevated blood pressure", "setting": "participants with nAMD; 100 mg, N = 1", "value": "0 number of participants (%)"}, {"measurement": "TRAE: Hair colour changes", "setting": "participants with nAMD; 100 mg, N = 1", "value": "0 number of participants (%)"}, {"measurement": "TRAE: Leucopenia", "setting": "participants with nAMD; 100 mg, N = 1", "value": "0 number of participants (%)"}, {"measurement": "TRAE: Neutropenia", "setting": "participants with nAMD; 100 mg, N = 1", "value": "0 number of participants (%)"}, {"measurement": "TRAE: QT interval prolongation", "setting": "participants with nAMD; 100 mg, N = 1", "value": "0 number of participants (%)"}, {"measurement": "TRAE: Thrombocytopenia", "setting": "participants with nAMD; 100 mg, N = 1", "value": "0 number of participants (%)"}, {"measurement": "Drug-related AEs leading to drug discontinuation", "setting": "participants with nAMD; 6 of 41 participants", "value": 14.6, "unit": "%"}, {"measurement": "Fatal TRAEs", "setting": "participants with nAMD; all cohorts", "value": "No fatal TRAEs"}, {"measurement": "Ocular TRAEs", "setting": "participants with nAMD; all cohorts", "value": "no ocular TRAEs occurred"}, {"measurement": "Participants with at least one AE", "setting": "participants with nAMD; all cohorts, N = 41", "value": "39 (95.1%) participants (%)"}, {"measurement": "Participants with grade 3 or higher TRAEs", "setting": "participants with nAMD; all cohorts, N = 41", "value": "12 (29.3%) participants (%)"}, {"measurement": "Participants with treatment-related adverse events (TRAEs)", "setting": "participants with nAMD; all cohorts, N = 41", "value": "33 (80.5%) participants (%)"}, {"measurement": "Elevated alanine aminotransferase (most common nonocular TRAE)", "setting": "participants with nAMD; all participants", "value": 41.5, "unit": "%"}, {"measurement": "Dose-limiting toxicities (DLTs), total", "setting": "participants with nAMD; dose escalation 25–100 mg daily", "value": "two"}, {"measurement": "Maximum tolerated dose", "setting": "participants with nAMD; oral 25–100 mg daily", "value": "not reached"}]}]}
